In data set [1] the target is T1, μ-opioid receptor (Cavia porcellus, UniProt A0ACM8Q262). Nature of the data set: Evaluation of agonist activity at the μ-opioid receptor, guinea pig ileum test. The protocol: (§1) Evaluation for Agonist and Antagonist Activities at the […] Receptors in the Guinea Pig Ileum
(§2) Agonist/antagonist activity at the μ-opioid receptor was determined using the well known guinea pig ileum test. Briefly, an a section of ileum was placed in a stabilized solution in a tensed state. Transducers were used to measure changes in tension upon electrical stimulation to the tissue before and after challenge with a potential agonist/antagonist Using a control, constriction inhibition, and constriction inhibition cancellation, may be measured.

A further data set concerns the target human μ-receptor (Homo sapiens, UniProt P35372). Nature of the data set: human μ-receptor model (binding, Ki). The conditions noted are these: read-out: % Inhibition at 1 × 10^−5 M.
Data set [2] has as its target T1, μ-opioid receptor. Nature of the data set: Evaluation of antagonist activity at the μ-opioid receptor, guinea pig ileum test (tissue model, responses to DAMGO). The conditions noted are these: for IC50: tissue model for antagonist activity. The protocol:
as §1, §2

Data set [3] relates to T2, μ-opioid receptor.
T2 construct: Responses to increasing concentrations of the compounds (% control response to DAMGO); other: compound 1.0E^−04 M; Responses to increasing concentrations of the compounds (% control response to DAMGO); other: compound 1.0E^−08 M; other: compound 3.0E^−08 M; Responses to increasing concentrations of the com
The data set can be described thus: Evaluation of agonist activity at the μ-opioid receptor, guinea pig ileum test. How it is done:
as §1, §2

Setting [4] is: guinea pig, read-out: Responses to DAMGO (1.0E−07 M) in the presence of increasing concentrations of the compounds (% control response).

T1 sequence (A0ACM8Q262 1-400): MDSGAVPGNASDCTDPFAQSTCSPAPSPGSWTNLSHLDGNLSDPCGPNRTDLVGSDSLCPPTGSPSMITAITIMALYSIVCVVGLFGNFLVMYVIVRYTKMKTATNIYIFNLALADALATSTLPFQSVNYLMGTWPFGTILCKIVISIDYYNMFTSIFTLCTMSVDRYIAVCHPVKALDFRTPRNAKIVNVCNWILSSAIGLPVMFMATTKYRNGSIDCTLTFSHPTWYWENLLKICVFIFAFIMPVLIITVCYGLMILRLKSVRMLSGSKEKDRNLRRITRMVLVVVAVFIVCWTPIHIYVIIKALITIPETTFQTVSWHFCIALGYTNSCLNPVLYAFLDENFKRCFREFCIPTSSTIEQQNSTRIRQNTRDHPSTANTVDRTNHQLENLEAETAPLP
Chain of human μ-receptor (P35372 whole entry): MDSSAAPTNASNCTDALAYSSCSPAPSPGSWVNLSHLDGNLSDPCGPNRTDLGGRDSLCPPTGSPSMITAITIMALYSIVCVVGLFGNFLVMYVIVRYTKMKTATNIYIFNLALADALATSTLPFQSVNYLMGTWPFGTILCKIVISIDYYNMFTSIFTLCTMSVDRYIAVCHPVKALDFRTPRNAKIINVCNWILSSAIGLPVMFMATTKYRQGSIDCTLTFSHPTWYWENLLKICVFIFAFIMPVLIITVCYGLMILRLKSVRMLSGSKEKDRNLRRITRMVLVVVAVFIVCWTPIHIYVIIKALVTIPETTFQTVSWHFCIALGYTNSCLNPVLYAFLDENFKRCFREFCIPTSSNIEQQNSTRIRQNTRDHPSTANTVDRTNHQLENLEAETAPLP

The term melting point denotes the temperature of the solid-liquid transition. `O=C1CC[C@H]2[C@H]3Cc4ccc(O)c5c4[C@@]2(CC[N+]3([O-])CC2CC2)[C@H]1O5` (stereo partly drawn) returned a melting point of 209 to 211 °C.

Regarding `C[C@@H](NC(=O)[C@@H](N)Cc1ccc(O)cc1)C(=O)NCC(=O)N(C)[C@@H](Cc1ccccc1)C(=O)NCCO` [DAMGO, D-Ala^2,N-Me-Phe^4,Gly^5-ol-enkephalin, reference compound], at μ-opioid receptor [1] (after highest compound concentration, + naloxone 1.0E^−07 M), the “Response + Naloxone (1.0E^−07 M)” value worked out at 4%. Also, the activation at 1 µM at μ-opioid receptor [1] (compound 1.0E^−06 M, read-out: Responses to increasing concentrations of the compounds (% control response to DAMGO)) stood at 103%. On μ-opioid receptor [1] (compound 1.0E^−07 M, read-out: Responses to increasing concentrations of the compounds (% control response to DAMGO)), the activation at 0.1 µM is 96%. Moreover, on μ-opioid receptor [1] (compound 1.0E^−08 M, read-out: Responses to increasing concentrations of the compounds (% control response to DAMGO)), the activation at 0.01 µM was determined as 57%. The activation at 0.001 µM on μ-opioid receptor [1] (compound 1.0E−09 M, read-out: Responses to increasing concentrations of the compounds (% control response to DAMGO)) was 9%.

As usually defined, the inhibition is the drop in the measured response relative to a control, in per cent. As for `[O-][N+]1(CC2CC2)CC[C@]23c4c5ccc(O)c4O[C@H]2[C@@H](Cn2ccnc2)CC[C@@]3(O)[C@H]1C5` (stereo partly drawn) [Compound C0018, 17-Cyclopropylmethyl-4,5α-epoxy-3,14-dihydroxy-6α-(1H-imidazol-1-yl)methyl morphinan N-oxide], the inhibition at 10 µM on human μ-receptor amounted to 89%.

Regarding `Oc1ccc2c3c1O[C@H]1[C@@H](O)CC[C@@]4(O)[C@@H](C2)[N+](O)(CC2CC2)CC[C@]314` (stereo partly drawn) [Compound C0003, (S)-17-Cyclopropylmethyl-4,5α-epoxy-morphinan-3,6α,14-triol N-oxide], the inhibition at 10 µM at human μ-receptor stood at 100%.

Broadly, the IC50 is the concentration that gives 50% inhibition. A higher IC50 goes with lower potency. On to `C=C1CC[C@@]2(O)[C@H]3Cc4ccc(O)c5c4[C@@]2(CC[N+]3([O-])CC2CC2)[C@H]1O5` (stereo partly drawn) [Compound C0002], for which the inhibition at 10 µM at human μ-receptor was 94%. Moreover, the IC50 against μ-opioid receptor [2] was above 100000 nM.

Take `C=C1CC[C@@]2(OCCCc3ccccc3)[C@H]3Cc4ccc(O)c5c4[C@@]2(CC[N+]3([O-])CC2CC2)[C@H]1O5.O=C(O)C(F)(F)F` (stereo partly drawn): the melting point was 182 °C (dec.).

In the case of `[O-][N+]1(CC2CC2)CC[C@]23c4c5ccc(O)c4O[C@H]2[C@@H](O)CC[C@@]3(OCCCc2ccccc2)[C@H]1C5` (stereo partly drawn), the melting point fell in the range of 155 to 159 °C.

`CC1C[C@@]2(O)[C@H]3Cc4ccc(O)c5c4[C@@]2(CC[N+]3([O-])CC2CC2)[C@@H](O5)C1=O` (stereo partly drawn) [Compound C0030, (S)-17-Cyclopropylmethyl-4,5α-epoxy-3,14-dihydroxy-7-methyl-morphinan-6-one N-oxide]: the inhibition at 10 µM on human μ-receptor was found to be 67%.

Turning to `[O-][N+]1(CC2CC2)CC[C@]23c4c5ccc(O)c4O[C@H]2CCC[C@@]3(O)[C@H]1C5` (stereo partly drawn) [Compound C0023, 17-Cyclopropylmethyl-4,5α-epoxy-3,14-dihydroxymorphinan-N-oxide], the inhibition at 10 µM at human μ-receptor was 101%.

Regarding `[O-][N+]1(CC2CC2)CC[C@]23c4c5ccc(O)c4O[C@H]2[C@@H](CO)CC[C@@]3(O)[C@H]1C5` (stereo partly drawn) [Compound C0021, 17-cyclopropylmethyl-4,5α-epoxy-3,14-dihydroxy-6α-hydroxymethyl morphinan N-oxide], the inhibition at 10 µM on human μ-receptor was 95%.

Consider `O=C1CC[C@@]2(O)[C@H]3Cc4ccc(O)c5c4[C@@]2(CC[N+]3([O-])CC2CC2)[C@H]1O5` (stereo partly drawn) [Compound C0001, (S)-17-Cyclopropylmethyl-4,5α-epoxy-3,14-hydroxy-morphinan-6-one N-oxide], for which, on human μ-receptor, the inhibition at 10 µM was determined as 96%. Besides, at μ-opioid receptor [2] (setting [4]), the remaining activity at 0.01 µM amounted to 100%, the remaining activity at 0.03 µM is 91%, the remaining activity at 0.1 µM worked out at 80% and the remaining activity at 0.3 µM worked out at 62%. In addition, on μ-opioid receptor [2] (setting [4]), the remaining activity at 1 µM came to 36%, the remaining activity at 3 µM came out at 23%, the remaining activity at 10 µM was 16% and the remaining activity at 30 µM turned out to be 16%. Moreover, on μ-opioid receptor [2] (setting [4]), the remaining activity at 100 µM came to 16%. Moreover, the IC50 against μ-opioid receptor [2] was 560 nM. Besides, the “Responses to increasing concentrations of the compounds (% control response to DAMGO)” value with μ-opioid receptor [3] (compound 1.0E^−04 M) was determined as 0%. The “Responses to increasing concentrations of the compounds (% control response to DAMGO)” value in the data set with μ-opioid receptor [3] (compound 1.0E^−05 M) is given as 0%. Besides, the “Responses to increasing concentrations of the compounds (% control response to DAMGO)” value in the data set on μ-opioid receptor [3] (compound 1.0E^−06 M) turned out to be 0%. In addition, the “Responses to increasing concentrations of the compounds (% control response to DAMGO)” value in the data set on μ-opioid receptor [3] (compound 1.0E^−07 M) is on record as 0%. Moreover, the “Responses to increasing concentrations of the compounds (% control response to DAMGO)” value in the data set with μ-opioid receptor [3] (compound 1.0E^−08 M) is reported as 0%. Also, the “Responses to increasing concentrations of the compounds (% control response to DAMGO)” value in the data set with μ-opioid receptor [3] (compound 3.0E^−05 M) is reported as 0%. For the same compound, the “Responses to increasing concentrations of the compounds (% control response to DAMGO)” value in the data set on μ-opioid receptor [3] (compound 3.0E^−06 M) came to 0%. The “Responses to increasing concentrations of the compounds (% control response to DAMGO)” value in the data set on μ-opioid receptor [3] (compound 3.0E^−07 M) was 0%. Further, the “Responses to increasing concentrations of the compounds (% control response to DAMGO)” value in the data set with μ-opioid receptor [3] (compound 3.0E^−08 M) was found to be 0%. The agonistic activity entry with μ-opioid receptor [3] (concentration of 1.0×10^−4 M, versus DAMGO) was “No agonistic activity”.
